Data: patent publication US12577255B2, “MDM2-based modulators of proteolysis and associated methods of use” (Arvinas Operations, Inc., priority 2015, dated 2026)

What follows are compounds tested on p53 (assay: Western blot of HCT116 cells, p53 level). Conditions: Western blot (FIG. 2, FIG. 3).
Format: cell-based, human
`COc1cc(C(=O)NCCOCCOCCOCCOCC(=O)N[C@H](C(=O)N2C[C@H](O)C[C@H]2C(=O)NCc2ccc(-c3scnc3C)cc2)C(C)(C)C)ccc1NC(=O)C1NC(CC(C)(C)C)C(C#N)(c2ccc(Cl)cc2F)C1c1cccc(Cl)c1F` (mixture of isomers) [Compound A1895, 3-(3-chloro-2-fluorophenyl)-4-(4-chloro-2-fluorophenyl)-4-cyano-5-(2,2-dimethylpropyl)-N-{4-[(1-{[(2S)-1-[(2S,4R)-4-hydroxy-2-({[4-(4-methyl-1,3-thiazol-5-yl)phenyl]methyl}carbamoyl)pyrrolidin-1-yl]-3,3-dimethyl-1-oxobutan-2-yl]carbamoyl}-2,5,8,11-tetraoxatridecan-13-yl)carbamoyl]-2-methoxyphenyl}pyrrolidine-2-carboxamide] was tested, and the p53 level increase was “dose dependent p53 level increase”. For `COc1cc(C(=O)NCCOCCOCCOCC(=O)N[C@H](C(=O)N2C[C@H](O)C[C@H]2C(=O)NCc2ccc(-c3scnc3C)cc2)C(C)(C)C)ccc1NC(=O)[C@@H]1N[C@@H](CC(C)(C)C)[C@](C#N)(c2ccc(Cl)cc2F)[C@H]1c1cccc(Cl)c1F` [Compound A1910, (2R,3S,4R,5S)-3-(3-chloro-2-fluorophenyl)-4-(4-chloro-2-fluorophenyl)-4-cyano-5-(2,2-dimethylpropyl)-N-{4-[(2-{2-[2-({[(2S)-1-[(2S,4R)-4-hydroxy-2-({[4-(4-methyl-1,3-thiazol-5-yl)phenyl]methyl}-carbamoyl)pyrrolidin-1-yl]-3,3-dimethyl-1-oxobutan-2-yl]carbamoyl}methoxy)-ethoxy]ethoxy}ethyl)carbamoyl]-2-methoxyphenyl}pyrrolidine-2-carboxamide], the p53 level increase was “dose dependent p53 level increase”.

Each compound was assayed against T1, androgen receptor (AR) (Homo sapiens, UniProt P10275) (assay: AR ELISA assay (degradation)). Conditions: VCaP cells, 16 h.
T1 construct: detects endogenous levels of total androgen receptor protein; host or cells: VCaP
T1 sequence (P10275 1-920): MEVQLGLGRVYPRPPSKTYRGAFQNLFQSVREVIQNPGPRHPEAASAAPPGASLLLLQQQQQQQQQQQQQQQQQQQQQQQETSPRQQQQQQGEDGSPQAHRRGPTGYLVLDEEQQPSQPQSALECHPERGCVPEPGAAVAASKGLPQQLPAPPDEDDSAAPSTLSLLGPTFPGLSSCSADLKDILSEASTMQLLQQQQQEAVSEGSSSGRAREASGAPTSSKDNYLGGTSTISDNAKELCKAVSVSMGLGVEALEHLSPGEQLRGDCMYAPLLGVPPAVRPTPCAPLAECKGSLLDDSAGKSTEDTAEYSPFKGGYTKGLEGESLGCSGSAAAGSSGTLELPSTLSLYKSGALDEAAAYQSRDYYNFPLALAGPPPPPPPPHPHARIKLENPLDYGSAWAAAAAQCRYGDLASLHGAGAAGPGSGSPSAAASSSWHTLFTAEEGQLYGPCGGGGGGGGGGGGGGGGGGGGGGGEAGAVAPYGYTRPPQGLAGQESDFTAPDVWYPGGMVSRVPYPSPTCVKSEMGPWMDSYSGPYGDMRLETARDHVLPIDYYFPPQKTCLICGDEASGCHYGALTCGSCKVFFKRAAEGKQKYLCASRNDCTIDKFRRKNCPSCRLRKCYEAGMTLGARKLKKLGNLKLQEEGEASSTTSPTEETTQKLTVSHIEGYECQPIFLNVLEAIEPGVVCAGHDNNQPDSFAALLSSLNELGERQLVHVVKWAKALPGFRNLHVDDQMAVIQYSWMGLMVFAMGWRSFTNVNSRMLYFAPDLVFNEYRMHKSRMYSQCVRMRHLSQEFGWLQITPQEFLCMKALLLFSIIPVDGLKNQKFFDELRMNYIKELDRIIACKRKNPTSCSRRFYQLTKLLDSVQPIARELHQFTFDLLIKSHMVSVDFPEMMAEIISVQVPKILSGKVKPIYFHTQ
Format: cell-based
Experimental: The following biological assays were performed to evaluate the protein degradation in various cell types using representative compounds disclosed. The degradation of the following proteins were evaluated: bromodomain-containing protein 4 (BRD4), androgen receptor (AR), c-Myc, c-Jun N-terminal kinases (JNK), and enhancer of zeste homolog 2 (EZH2).
VCaP cells were chased from ATCC and cultured in Dulbecco's Modified Eagle's Medium (ATCC), supplemented with 10% FBS (ATCC) and Penicillin/Streptomycin (Life Technologies). DMSO control and compound treatments (0.0001 μM to 1 μM) were performed in 96-well plates for 16 h. cells were harvested, and lysed with Cell Lysis Buffer (catalog #9803) (20 mM Tris-HCl, pH 7.5, 150 mM NaCl, 1 mM Na2EDTA, 1 mM EGTA, 1% Triton, 2.5 mM sodium pyrophosphate, 1 mM B-glycerophosphate, 1 mM Na3VO4, 1 μg/mL leupeptin. Lysates were clarified at 16,000 g for 10 minutes, and loaded into PathScan AR ELISA (Cell Signaling Catalog #12850). The PathScan Total Androgen Receptor Sanwich ELISA Kit is a solid phase sandwich enzyme-linked immunosorbent assay (ELISA) that detects endogenous levels of total androgen receptor protein. An Androgen Receptor Rabbit mAb has been coated onto the microwells. After incubation with cell lysates, androgen receptor protein is captured by the coated antibody. Following extensive washing, an Androgen receptor Mouse Detection mAbis added to detect the captured androgen receptor protein. Anti-mouse IgG, HRP-linked Antibody is then used to recognize the bound detection antibody. HRP substrate, TMB, is added to develop color. The magnitude of absorbance for the developed color is proportional to the quantity of total androgen receptor protein.
`CC(C)(C)C[C@H]1N[C@H](C(=O)NCCOCCOCCOCCOCCOc2ccc(C(=O)N[C@H]3C(C)(C)[C@H](Oc4ccc(C#N)c(Cl)c4)C3(C)C)cc2)[C@@H](c2cccc(Cl)c2F)[C@]1(C#N)c1ccc(Cl)cc1F` [Compound A1735, (2S,3R,4S,5R)-3-(3-chloro-2-fluorophenyl)-4-(4-chloro-2-fluorophenyl)-4-cyano-5-(2,2-dimethylpropyl)-N-[1-(4-{[(1r,3r)-3-(3-chloro-4-cyanophenoxy)-2,2,4,4-tetramethylcyclobutyl]carbamoyl]phenyl)-1,4,7,10,13-pentaoxapentadecan-15-yl]pyrrolidine-2-carboxamide] gave an AR degradation (%) at 1 µM of 0 to 25%. With `CC(C)(C)C[C@@H]1N[C@@H](C(=O)NCCOCCOCCOCCOCCOc2ccc(C(=O)N[C@H]3C(C)(C)[C@H](Oc4ccc(C#N)c(Cl)c4)C3(C)C)cc2)[C@H](c2cccc(Cl)c2F)[C@@]1(C#N)c1ccc(Cl)cc1F` [Compound A1720, (2R,3S,4R,5S)-3-(3-chloro-2-fluorophenyl)-4-(4-chloro-2-fluorophenyl)-4-cyano-5-(2,2-dimethylpropyl)-N-[1-(4-{[(1,3-trans)-3-(3-chloro-4-cyanophenoxy)-2,2,4,4-tetramethylcyclobutyl]carbamoyl}phenyl)-1,4,7,10,13-pentaoxapentadecan-15-yl]pyrrolidine-2-carboxamide] the AR degradation (%) at 1 µM was 25 to 50%. For `COc1cc(C(=O)NCCCOCCCCCOc2ccc(N3C(=S)N(c4ccc(C#N)c(C(F)(F)F)c4)C(=O)C3(C)C)cc2)ccc1NC(=O)C1NC(CC(C)(C)C)C(C#N)(c2ccc(Cl)cc2F)C1c1cccc(Cl)c1F` (stereo not shown) [Compound A2435, 3-(3-chloro-2-fluorophenyl)-4-(4-chloro-2-fluorophenyl)-4-cyano-N-{4-[(3-{[5-(4-{3-[4-cyano-3-(trifluoromethyl)phenyl]-5,5-dimethyl-4-oxo-2-sulfanylideneimidazolidin-1-yl}phenoxy)pentyl]oxy}propyl)carbamoyl]-2-methoxyphenyl}-5-(2,2-dimethylpropyl)pyrrolidine-2-carboxamide], the AR degradation (%) at 1 µM was over 50%. `CC(C)(C)CC1NC(C(=O)NCCCOCCCCCOc2ccc(N3C(=S)N(c4ccc(C#N)c(C(F)(F)F)c4)C(=O)C3(C)C)cc2)C(c2cccc(Cl)c2F)C1(C#N)c1ccc(Cl)cc1F` (stereo not shown) [Compound A2434, 3-(3-chloro-2-fluorophenyl)-4-(4-chloro-2-fluorophenyl)-4-cyano-N-(3-{[5-(4-{3-[4-cyano-3-(trifluoromethyl)phenyl]-5,5-dimethyl-4-oxo-2-sulfanylideneimidazolidin-1-yl}phenoxy)pentyl]oxy}propyl)-5-(2,2-dimethylpropyl)pyrrolidine-2-carboxamide] showed an AR degradation (%) at 1 µM of over 50%. With `CC(C)(C)C[C@@H]1NC(C(=O)NCCOCCOCCOCCOc2ccc(C(=O)N[C@H]3C(C)(C)[C@H](Oc4ccc(C#N)c(Cl)c4)C3(C)C)cc2)[C@H](c2cccc(Cl)c2F)[C@@]1(C#N)c1ccc(Cl)cc1F` (stereo partly drawn) [Compound A1603, 3-(3-chloro-2-fluorophenyl)-4-(4-chloro-2-fluorophenyl)-4-cyano-5-(2,2-dimethylpropyl)-N-[1-(4-{[(1,3-trans)-3-(3-chloro-4-cyanophenoxy)-2,2,4,4-tetramethylcyclobutyl]carbamoyl}phenyl)-1,4,7,10-tetraoxadodecan-12-yl]pyrrolidine-2-carboxamide] the AR degradation (%) at 1 µM was 0 to 25%. Work on `CC(C)(C)C[C@@H]1NC(C(=O)NCCOCCOCCOCCOCCOc2ccc(C(=O)N[C@H]3C(C)(C)[C@H](Oc4ccc(C#N)c(Cl)c4)C3(C)C)cc2)[C@H](c2cccc(Cl)c2F)[C@@]1(C#N)c1ccc(Cl)cc1F` (stereo partly drawn) [Compound A1717, 3-(3-chloro-2-fluorophenyl)-4-(4-chloro-2-fluorophenyl)-4-cyano-5-(2,2-dimethylpropyl)-N-[1-(4-{[(1,3-trans)-3-(3-chloro-4-cyanophenoxy)-2,2,4,4-tetramethylcyclobutyl]carbamoyl}phenyl)-1,4,7,10,13-pentaoxapentadecan-15-yl]pyrrolidine-2-carboxamide] yielded an AR degradation (%) at 1 µM of 25 to 50%. `CC(C)(C)C[C@@H]1NC(C(=O)NCCOCCOc2ccc(C(=O)N[C@H]3C(C)(C)[C@H](Oc4ccc(C#N)c(Cl)c4)C3(C)C)cc2)[C@H](c2cccc(Cl)c2F)[C@@]1(C#N)c1ccc(Cl)cc1F` (stereo partly drawn) [Compound A1571, 3-(3-chloro-2-fluorophenyl)-4-(4-chloro-2-fluorophenyl)-4-cyano-5-(2,2-dimethylpropyl)-N-{2-[2-(4-{[(1,3-trans)-3-(3-chloro-4-cyanophenoxy)-2,2,4,4-tetramethylcyclobutyl]carbamoyl}phenoxy)ethoxy]ethyl}pyrrolidine-2-carboxamide] showed an AR degradation (%) at 1 µM of 0 to 25%. `CCOc1cc(C(C)(C)C)ccc1C1=NC(C)(c2ccc(Cl)cc2)C(C)(c2ccc(Cl)cc2)N1C(=O)N1CCN(CCOCCOCCOCCOCCOCCOc2ccc(N3C(=S)N(c4ccc(C#N)c(C(F)(F)F)c4)C(=O)C3(C)C)cc2)CC1` (stereo not shown) [Compound A702, 4-(3-{4-[(17-{4-[2-(4-tert-butyl-2-ethoxyphenyl)-4,5-bis(4-chlorophenyl)-4,5-dimethyl-4,5-dihydro-1H-imidazole-1-carbonyl]piperazin-1-yl}-3,6,9,12,15-pentaoxaheptadecan-1-yl)oxy]phenyl}-4,4-dimethyl-5-oxo-2-sulfanylideneimidazolidin-1-yl)-2-(trifluoromethyl)benzonitrile] showed an AR degradation (%) at 1 µM of 25 to 50%.
